This is an account of results in patent US4395969A (priority 1981, dated 1983).

Like-named read-outs stand apart in the source and are kept apart here.

In data set [1] the test system is sucker and stickleback. The conditions noted are these: in vivo.
The subject of data set [2] is bridgelip sucker. In words: Selectivity and safety indices of salmonids versus the bridgelip sucker. It counts as in vivo, Catastomus columbianus. The following applies: steelhead trout; 24 h. The source says: Delineation bioassays determined primarily the LC50 and LC100 of sucker and stickleback and the LC0 and LC50 of salmonids.
The statistical LC1, LC50, and LC99 were interpolated and/or extrapolated using probit graph paper to approximate the LC0, LC50, and LC100 when the latter set of values was not closely determined by single concentrations in a series.
The approximate LC50 and LC100 of the target fishes (threespine and brook sticklebacks and bridgelip and white suckers) are tabulated in Table 1. The 96-hour selectivity and safety indices of selected species of salmonids versus the three-spine stickleback are tabulated in Table 3.
Threespine stickleback, brook stickleback, bridgelip sucker, white sucker, chinook salmon, coho salmon, sockeye salmon, kokanee, Kamloops trout, cutthroat trout, and brook trout were treated with various concentrations of 2, 2, 2, 1-tetrachloroethyl diethyl phosphate and at various temperatures to determine approximate selectivity and safety indices. The approximate LC50 and LC100 of the target fishes (threespine and brook sticklebacks and bridgelip and white suckers) are tabulated in Table 5. The 96-hour selectivity and safety indices of selected species of salmonids versus the threespine stickleback are tabulated in Table 7.

For data set [3], the system named is bridgelip sucker. Details: species or system Catastomus columbianus. The following applies: in vivo.
The next data set concerns steelhead trout. The conditions noted are these: in vivo.
A further data set concerns chinook salmon. The following applies: in vivo.
The next data set is described as follows: in vivo. The following applies: chinook salmon.
Data set [4] relates to threespine stickleback. Details: species or system Gasterosteus aculeatus. The following applies: in vivo.
The subject of data set [5] is threespine stickleback. Details: species or system Gasterosteus aculeatus. The following applies: in vivo, 5760 min.
For data set [6] the following is noted: published literature; cited from earlier work.
The next data set relates to carp. The conditions noted are these: used in ponds; cited from earlier work.
The subject of data set [7] is sucker and stickleback. The following applies: cited from earlier work.

On to `CCOP(=O)(OCC)OC(Cl)CCl` (stereo not shown) [1,2-dichloroethyl diethyl phosphate], for which the “selectivity/specificity for sucker and stickleback” value in the data set on sucker and stickleback [1] was “extremely selective for suckers and stickleback”. In the data set on bridgelip sucker [2], this compound had a safety index of 10 and a selectivity index of 35. Also, in the data set with bridgelip sucker [3], the “activity and selectivity of the two chemicals” value is reported as “very similar”; the “concentration of 100% mortality of sucker” value is 0.1 mg/L; the “concentration of almost 100% mortality of sucker” value stood at 0.3 mg/L. In the data set on salmonids (in vivo), the harm to salmonids result is “harmless to salmonids”. In addition, in the data set on steelhead trout, the “concentration below which almost no mortality occurred in trout” value is recorded as “below 3.0 mg/l” and the “concentration below which no mortality occurred in steelhead” value is “below 5.0 mg/l”.

The term LC50 denotes the concentration lethal to half of the exposed cells or organisms. Consider `CCOP(=O)(OCC)OC(Cl)=C(Cl)Cl` [2,2,1-trichlorovinyl diethyl phosphate], for which the “activity relative to the dichloro-compounds” value in the data set on sucker and stickleback [1] is recorded as “about 100 times”. Also, the LC0 result with chinook salmon (chinook salmon) was “about 16 μg/l”. Also, the LC50 in “in vivo” was 0.018 to 0.02 µg/mL. In the data set on threespine stickleback [4], the LC50 amounted to 0.008 µg/mL, the LC100 is approximately 11 µg/L and the toxicity to stickleback result is “almost as toxic to stickleback as 2,2,2,1-tetrachloroethyl diethyl phosphate”.

As for `CCOP(=O)(OCC)OC(=C(Cl)Cl)P(=O)(OCC)OCC` [2,2-dichloro-1-diethyl phosphonovinyl diethyl phosphate], the “Safety index (LC0/LC100)” value in the data set with threespine stickleback [5] was determined as 0.9. Moreover, the 50% lethal concentration (LC50) in the data set “in vivo” was 0.018 to 0.02 µg/mL; in the data set with threespine stickleback [4], 0.008 µg/mL.

Take `COP(=O)(OC)OC=C(Cl)Cl` [O,O-dimethyl O-(2,2-dichlorovinyl) phosphate]: the carcinogenicity / residues result in data set [6] was “none suggest that DDVP is a carcinogen or concentrates residues”. The injury to carp entry in the data set on carp was “without injuring carp”. The “selectivity for stickleback or suckers” value in the data set on sucker and stickleback [7] (in vivo) is recorded as “no selectivity for stickleback or suckers”.

Regarding `O=C(O)C(Cl)Cl` [dichloroacetic acid, reference compound], in the data set on chinook salmon, the mortality result is listed as “suffered no mortalities”.

Take `C=C(C)[C@H]1Cc2c(ccc3c2O[C@@H]2COc4cc(OC)c(OC)cc4[C@@H]2C3=O)O1` [rotenone]: in the data set on sucker and stickleback [7] (background), the “control of sucker and stickleback numbers by spot poisoning” value is “ineffective in controlling sucker and stickleback numbers”.

Consider “O,O-diethyl S-(2,2-dichlorovinyl) thiophosphate”, for which, in the data set with sucker and stickleback [1], the “selectivity/specificity for sucker and stickleback” value is “extremely selective for suckers and stickleback”. Further, in the data set with bridgelip sucker [3], the “activity and selectivity of the two chemicals” value is listed as “very similar”; the “concentration of 100% mortality of sucker” value is 0.1 mg/L. Further, the harm to salmonids result with salmonids (24-hour bioassays, about 15 C) is reported as “harmless to salmonids”. The “concentration below which no mortality occurred in steelhead” value in the data set on steelhead trout is “below 1.0 mg/l”.
